Legend:
[1] = system: human peripheral blood mononuclear cells (human PBMC); assay: TNFa inhibition in human PBMC monocytes (ELISA); assay type: cell-based; conditions: TNFa concentration in culture medium by ELISA, HSA/anti-HSA antibody coated plate, overnight culture, read-out: hPBMC IC50
Procedure: 20 ug/ml of human serum albumin (HAS) solution was prepared and distributed in a 96-well plate (200 μl/well). Reaction was induced at 4° C. for overnight and then 10% FBS solution was treated thereto (200 μl/well), followed by elimination. Lastly, 10 ug/ml of anti-HSA antibody was treated thereto (200 μl/well) for 1 hour, followed by elimination. An appropriate number of monocytes of human peripheral blood mononuclear cells (human PBMC) were distributed in the prepared 96-well plate. The target compounds were treated thereto at different concentration via serial dilution method, followed by culture for overnight. IC50 values of the compounds were determined by confirming the TNFa inhibition activity of the compounds between the maximum concentration (positive control) and the minimum concentration (negative control) of TNFa, and the results are shown in Table 8.

TMD8 cells = assay: TMD8 cell growth inhibition (WST-1, 72 hours); assay type: cell-based; conditions: Homo sapiens, TMD8 ABC type DLBCL cell line, WST-1, absorbance 450 nm
Procedure: TDM-8 cells, the ABC (activated B-cell) type DLBCL (diffuse large B cell lymphoma) cell line sensitive to BTK signaling, were seeded in a 96-well plate at 30% confluency. Then, the compounds of the invention were treated thereto at different concentrations. 72 hours later, WST-1 reagent was added thereto. One hour later, absorbance was measured at 450 nm by using a spectramax spectrophotometer.

[2] = target: Bruton's tyrosine kinase (BTK) (Homo sapiens (Human), UniProt Q06187); assay: BTK enzyme inhibition assay (Cisbio HTRF kit); assay type: biochemical; conditions: 30 minutes reaction, fluorescence 665 nm/620 nm
Sequence of Bruton's tyrosine kinase (BTK) (Q06187 whole entry): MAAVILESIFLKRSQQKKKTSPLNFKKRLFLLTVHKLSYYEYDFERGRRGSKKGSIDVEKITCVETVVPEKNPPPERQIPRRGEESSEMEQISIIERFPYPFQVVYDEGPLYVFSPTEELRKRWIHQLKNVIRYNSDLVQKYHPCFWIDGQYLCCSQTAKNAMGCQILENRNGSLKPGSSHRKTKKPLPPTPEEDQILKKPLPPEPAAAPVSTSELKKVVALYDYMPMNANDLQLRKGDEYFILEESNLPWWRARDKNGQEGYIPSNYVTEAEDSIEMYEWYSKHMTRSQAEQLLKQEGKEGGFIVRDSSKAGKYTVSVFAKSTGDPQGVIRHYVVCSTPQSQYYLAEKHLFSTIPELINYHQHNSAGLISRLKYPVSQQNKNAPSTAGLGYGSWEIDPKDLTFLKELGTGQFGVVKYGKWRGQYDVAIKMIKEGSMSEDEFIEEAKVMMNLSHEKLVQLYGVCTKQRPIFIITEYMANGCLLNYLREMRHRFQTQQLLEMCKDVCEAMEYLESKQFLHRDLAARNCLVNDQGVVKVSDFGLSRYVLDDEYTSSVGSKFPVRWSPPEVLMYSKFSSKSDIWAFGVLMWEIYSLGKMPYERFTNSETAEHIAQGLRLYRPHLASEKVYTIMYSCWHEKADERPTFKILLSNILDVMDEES

**Q.** Which results are given for `COc1cc2c(cc1Nc1ncc3c(Nc4c(C)cccc4C)nn(C)c3n1)CCNC2` [Example 4, N^1-(2,6-dimethylphenyl)-N^6-(7-methoxy-1,2,3,4-tetrahydroisoquinoline-6-yl)-1-methyl-1H-pyrazolo[3,4-d]pyrimidine-3,6-diamine]?
**A.** IC50 [1]: 209 nM; IC50 (TMD8 cells): 572 nM; IC50 [2]: 100 nM

**Q.** Which results are given for `Cc1cccc(C)c1Nc1nn(C)c2nc(Nc3ccc4c(c3)CCN(C(=O)C(F)(F)F)C4)ncc12` [Example 6, 1-(6-(3-(2,6-dimethylphenylamino)-1-methyl-1H-pyrazolo[3,4-d]pyrimidine-6-ylamino)-3,4-dihydroisoquinoline-2(1H)-yl)-2,2,2-trifluoroethaneone]?
**A.** IC50 [1]: 113 nM; IC50 (TMD8 cells): 159 nM; IC50 [2]: 10 nM

**Q.** How did the IC50 [1] turn out when `Cc1cccc(C)c1Nc1nn(C)c2nc(Nc3ccc4c(c3)CCNC4)ncc12` [Example 7, N^3-(2,6-dimethylphenyl)-1-methyl-N^6-(1,2,3,4-tetrahydroisoquinoline-6-yl)-1H-pyrazolo[3,4-d]pyrimidine-3,6-diamine] was run?
**A.** 20 nM

**Q.** And the IC50 (TMD8 cells)?
**A.** 46 nM

**Q.** And the IC50 [2]?
**A.** 0.8 nM

**Q.** With `CC(=O)N1CCc2cc(Nc3ncc4c(Nc5c(C)cccc5C)nn(C)c4n3)ccc2C1` [Example 8, 1-(6-(3-(2,6-dimethylphenylamino)-1-methyl-1H-pyrazolo[3,4-d]pyrimidine-6-ylamino)-3,4-dihydroisoquinoline-2(1H)-yl)ethaneone] as the molecule, how does the IC50 [1] read?
**A.** 4.8 nM

**Q.** And the IC50 (TMD8 cells)?
**A.** 93 nM

**Q.** And the IC50 [2]?
**A.** 1 nM

**Q.** For `Cn1nc(Nc2c(Cl)cccc2Cl)c2cnc(Nc3ccc4c(c3)CNCC4)nc21` [Example 12, N^3-(2,6-dichlorophenyl)-1-methyl-N^6 (1,2,3,4-tetrahydroisoquinoline-7-yl)-1H-pyrazolo[3,4-d]pyrimidine-3,6-diamine], which IC50 [1] is on record?
**A.** 2.6 nM

**Q.** What about the IC50 (TMD8 cells) of the same molecule?
**A.** 89 nM

**Q.** What about the IC50 [2] of the same molecule?
**A.** 3.75 nM

**Q.** `CC(=O)N1CCc2ccc(Nc3ncc4c(Nc5c(Cl)cccc5Cl)nn(C)c4n3)cc2C1` [Example 13, 1-(7-(3-(2,6-dichlorophenylamino)-1-methyl-1H-pyrazolo[3,4-d]pyrimidine-6-ylamino)-3,4-dihydroisoquinoline-2(1H)-yl)ethaneone] was tested. Which IC50 [1] did it give?
**A.** 5.5 nM

**Q.** And the IC50 (TMD8 cells)?
**A.** 118 nM

**Q.** And the IC50 [2]?
**A.** 3 nM

**Q.** `C=CC(=O)N1CCc2ccc(Nc3ncc4c(Nc5c(C)cccc5C)nn(C)c4n3)cc2C1` [Example 14, 1-(7-(3-(2,6-dimethylphenylamino)-1-methyl-1H-pyrazolo[3,4-d]pyrimidine-6-ylamino)-3,4-dihydroisoquinoline-2(1H)-yl)prop-2-en-1-one] was tested. Which IC50 [1] did it give?
**A.** 31 nM

**Q.** And the IC50 (TMD8 cells)?
**A.** 32 nM

**Q.** What about the IC50 [2] of the same molecule?
**A.** 2 nM

**Q.** Which IC50 [1] does the source give for `CC(=O)N1CCc2cc(Nc3ncc4c(Nc5c(Cl)cccc5Cl)nn(C)c4n3)ccc2C1` [Example 16, 1-(6-(3-(2,6-dichlorophenylamino)-1-methyl-1H-pyrazolo[3,4-d]pyrimidine-6-ylamino)-3,4-dihydroisoquinoline-2(1H)-yl)ethaneone] here?
**A.** 3.2 nM

**Q.** What about the IC50 (TMD8 cells) of the same molecule?
**A.** 61 nM

**Q.** And the IC50 [2]?
**A.** 3 nM
